Results from patent publication US20090142347A1, “Tissue-Nonspecific Alkaline Phosphatase (TNAP): a Therapeutic Target for Arterial Calcification” (THE BURNHAM INSTITUTE FOR MEDICAL RESEARCH, priority 2004, published 2009).

Key:
hPLALP (R428, H429) = target: T1, hPLALP (R428, H429) (Homo sapiens, UniProt P05187, D450R/E451H); assay: Ki of uncompetitive inhibitors (pNPP substrate); format: biochemical; settings: hPLALP mutant (R428, H429); read-out: Ki for various inhibitors
T1 construct: made in house; host or cells: COS-7 (given only for the TNAP-Flag constructs)
Description: In brief, samples of the enzymes were added to microtiter plates coated with M2 anti-FLAG antibody, and saturating activities with the substrate pNPP were measured in 1 M DEA/HCl buffer, pH 9.8, containing 1 mM MgCl2 and 20 .micro.M ZnCl2.

hTNALP = hTNALP (Homo sapiens, UniProt P05186); assay: biochemical
hTNALP A109 = hTNALP A109 (Homo sapiens, UniProt P05186, G126A); assay: biochemical
hTNALP (F104, Q109) = hTNALP (F104, Q109) (Homo sapiens, UniProt P05186, E125F/G126Q); assay: biochemical
hTNALP A120 = hTNALP A120 (Homo sapiens, UniProt P05186, S137A); assay: biochemical
hTNALP N120 = hTNALP N120 (Homo sapiens, UniProt P05186, S137N); assay: biochemical
hTNALP A166 = hTNALP A166 (Homo sapiens, UniProt P05186, D183A); assay: biochemical
hTNALP N168 = hTNALP N168 (Homo sapiens, UniProt P05186, D185N); assay: biochemical
hTNALP A434 = hTNALP A434 (Homo sapiens, UniProt P05186, H451A); assay: biochemical
hTNALP Q434 = hTNALP Q434 (Homo sapiens, UniProt P05186, H451Q); assay: biochemical
hTNALP G434 = hTNALP G434 (Homo sapiens, UniProt P05186, H451G); assay: biochemical
hTNALP B434 = hTNALP B434 (Homo sapiens, UniProt P05186, H451E); assay: biochemical
hTNALP (D433, E434) = hTNALP (D433, E434) (Homo sapiens, UniProt P05186, H451E/R450D); assay: biochemical
hTNALP (D433, E434), sequence (P05186 18-501 R450D/H451E): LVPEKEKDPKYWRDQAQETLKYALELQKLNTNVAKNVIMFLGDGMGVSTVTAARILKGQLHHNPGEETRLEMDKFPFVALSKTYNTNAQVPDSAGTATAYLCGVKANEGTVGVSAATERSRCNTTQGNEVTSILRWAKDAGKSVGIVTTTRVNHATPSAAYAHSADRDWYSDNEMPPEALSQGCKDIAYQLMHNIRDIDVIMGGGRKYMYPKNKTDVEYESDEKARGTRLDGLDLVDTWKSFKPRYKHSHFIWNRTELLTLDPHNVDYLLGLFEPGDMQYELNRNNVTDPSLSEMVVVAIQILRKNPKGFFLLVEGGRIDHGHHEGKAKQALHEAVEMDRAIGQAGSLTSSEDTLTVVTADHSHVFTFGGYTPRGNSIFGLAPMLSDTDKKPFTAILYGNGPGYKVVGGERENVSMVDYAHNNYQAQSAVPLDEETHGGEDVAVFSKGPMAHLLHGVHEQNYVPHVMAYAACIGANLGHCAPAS

hTNALP N120, sequence (P05186 18-501 S137N): as the sequence (P05186 18-501 R450D/H451E) above, with S120N, D433R, E434H counted along it
hTNALP Q434, sequence (P05186 18-501 H451Q): as the sequence (P05186 18-501 R450D/H451E) above, with D433R, E434Q counted along it
hTNALP (F104, Q109), sequence (P05186 whole entry E125F/G126Q): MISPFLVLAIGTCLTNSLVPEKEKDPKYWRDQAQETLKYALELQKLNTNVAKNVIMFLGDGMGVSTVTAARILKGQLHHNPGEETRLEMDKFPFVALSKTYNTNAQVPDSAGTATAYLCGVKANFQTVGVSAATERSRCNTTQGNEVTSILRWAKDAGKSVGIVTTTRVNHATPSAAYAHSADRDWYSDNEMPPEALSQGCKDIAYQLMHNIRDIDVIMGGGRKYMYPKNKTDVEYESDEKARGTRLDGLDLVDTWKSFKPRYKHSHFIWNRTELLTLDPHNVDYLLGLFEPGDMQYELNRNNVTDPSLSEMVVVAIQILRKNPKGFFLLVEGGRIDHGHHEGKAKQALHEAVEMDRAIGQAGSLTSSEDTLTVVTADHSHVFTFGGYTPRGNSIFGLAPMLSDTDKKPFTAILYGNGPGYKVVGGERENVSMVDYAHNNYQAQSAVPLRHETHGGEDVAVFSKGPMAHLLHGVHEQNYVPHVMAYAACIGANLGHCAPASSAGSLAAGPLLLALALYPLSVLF
hTNALP A120, sequence (P05186 18-501 S137A): as the sequence (P05186 18-501 R450D/H451E) above, with S120A, D433R, E434H counted along it
hTNALP A434, sequence (P05186 18-501 H451A): as the sequence (P05186 18-501 R450D/H451E) above, with D433R, E434A counted along it
hTNALP G434, sequence (P05186 18-501 H451G): as the sequence (P05186 18-501 R450D/H451E) above, with D433R, E434G counted along it
hTNALP, sequence (P05186 18-501): as the sequence (P05186 18-501 R450D/H451E) above, with D433R, E434H counted along it
hTNALP A109, sequence (P05186 18-501 G126A): as the sequence (P05186 18-501 R450D/H451E) above, with G109A, D433R, E434H counted along it
hTNALP B434, sequence (P05186 whole entry H451E): as the sequence (P05186 whole entry E125F/G126Q) above, with F125E, Q126G, H451E counted along it
T1 sequence (P05187 23-506 D450R/E451H limits assumed): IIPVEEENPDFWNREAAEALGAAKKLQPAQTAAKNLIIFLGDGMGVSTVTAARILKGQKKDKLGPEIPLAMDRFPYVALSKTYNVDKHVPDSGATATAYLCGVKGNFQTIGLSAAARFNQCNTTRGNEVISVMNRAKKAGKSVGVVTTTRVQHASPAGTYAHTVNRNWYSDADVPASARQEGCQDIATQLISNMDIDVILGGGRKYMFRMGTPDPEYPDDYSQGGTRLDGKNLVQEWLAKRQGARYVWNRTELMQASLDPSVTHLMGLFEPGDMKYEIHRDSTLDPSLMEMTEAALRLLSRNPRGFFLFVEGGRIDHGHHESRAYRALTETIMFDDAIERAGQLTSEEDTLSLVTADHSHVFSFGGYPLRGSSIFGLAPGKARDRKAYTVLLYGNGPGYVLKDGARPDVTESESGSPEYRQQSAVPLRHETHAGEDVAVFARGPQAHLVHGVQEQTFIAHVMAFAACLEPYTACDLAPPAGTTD
hTNALP N168, sequence (P05186 18-501 D185N): as the sequence (P05186 18-501 R450D/H451E) above, with D168N, D433R, E434H counted along it
hTNALP A166, sequence (P05186 18-501 D183A): as the sequence (P05186 18-501 R450D/H451E) above, with D166A, D433R, E434H counted along it

| Structure (SMILES) | Ki (hPLALP (R428, H429)) | Ki (hTNALP) | Ki (hTNALP A109) | Ki (hTNALP (F104, Q109)) | Ki (hTNALP A120) | Ki (hTNALP N120) | Ki (hTNALP A166) | Ki (hTNALP N168) | Ki (hTNALP A434) | Ki (hTNALP Q434) | Ki (hTNALP G434) | Ki (hTNALP B434) | Ki (hTNALP (D433, E434)) |
| --- | --- | --- | --- | --- | --- | --- | --- | --- | --- | --- | --- | --- | --- |
| N[C@@H](Cc1ccccc1)C(=O)O [L-Phe, L-phenylalanine] | 0.35 ± 0.04 mM | 19 ± 6 mM | 20 ± 4 mM | 2.1 ± 0.4 mM | 24 ± 2 mM | 23 ± 8 mM | 24 ± 4 mM | 42 ± 6 mM | 21 ± 6 mM | 9.8 ± 1 mM | 9.6 ± 1 mM | 43 ± 8 mM |  |
| N=C(N)NCCCC[C@H](N)C(=O)O [L-hArg, L-homoarginine] | 14 ± 1 mM | 1.4 ± 0.1 mM | 1.3 ± 0.2 mM | 15 ± 2 mM | 1.4 ± 0.1 mM | 1.3 ± 0.1 mM | 1.6 ± 0.3 mM | 1.8 ± 0.1 mM | 1.5 ± 0.1 mM | 2 ± 0.1 mM | 1.6 ± 0.2 mM | 6.8 ± 0.5 mM | 13 ± 1.6 mM |
